Laboratory results as given in publication PMC4747952, “Development of TASP0410457 (TASP457), a novel dihydroquinolinone derivative as a PET radioligand for central histamine H3 receptors” (EJNMMI Research, 2016).

Experiments:
[1] = tested on: central H3Rs; test: Receptor occupancy assay, [^11C]TASP0410457-PET, Lassen's plot; type: in vivo, monkey; conditions: monkey
Method: Occupancy of central H3Rs by ciproxifan, a selective antagonist/inverse agonist, was quantified by [^11C]TASP0410457-PET scans of an anesthetized monkey with arterial blood sampling. […] Receptor occupancy of ciproxifan was determined using Lassen’s plot without any reference regions using the following equation: VT^Baseline−VT^Ciproxifan=OccVT^Baseline−VND where VT^Baseline and VT^Ciproxifan are the regional VT values at baseline and in the ciproxifan challenge, respectively, VND is the non-displaceable distribution volume, and Occ is the occupancy.

[2] = target: T1, H3R (Rattus norvegicus, UniProt Q9QYN8); test: PET imaging of rat brains; type: in vivo; conditions: for cerebellar SUV at 15 min after radioligand injection: mean ± S.D.
T1 construct: from tissue; host or cells: brain of living Sprague-Dawley rats
T1 sequence (Q9QYN8 whole entry): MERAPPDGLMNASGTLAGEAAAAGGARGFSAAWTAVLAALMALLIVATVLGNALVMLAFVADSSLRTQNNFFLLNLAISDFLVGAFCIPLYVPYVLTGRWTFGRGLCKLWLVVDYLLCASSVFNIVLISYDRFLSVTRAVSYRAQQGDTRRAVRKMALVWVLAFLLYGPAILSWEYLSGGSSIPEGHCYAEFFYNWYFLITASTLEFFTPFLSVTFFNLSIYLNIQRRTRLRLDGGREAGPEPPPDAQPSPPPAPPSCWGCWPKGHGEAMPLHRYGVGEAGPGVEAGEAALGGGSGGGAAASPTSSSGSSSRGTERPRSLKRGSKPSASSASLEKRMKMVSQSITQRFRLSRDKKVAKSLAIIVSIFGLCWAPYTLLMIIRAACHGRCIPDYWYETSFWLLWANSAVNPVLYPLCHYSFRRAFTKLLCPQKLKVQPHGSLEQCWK
Method: Six-week-old male Sprague-Dawley rats were purchased from Japan SLC (Shizuoka, Japan). PET scans were performed using a microPET Focus 220 small-animal scanner (Siemens Medical Solutions USA, Knoxville, TN). The rats were anesthetized with 1.5–2 % isoflurane during the imaging session, while their heart rate and blood oxygen saturation were monitored by pulse oximeter (CANL-425SVA; Med Associates, St. Albans, VT). Body temperature was kept at 37 °C with a heating pad (BWT-100; Bio Research Center, Aichi, Japan). Following the transmission scans for attenuation correction using a ^68Ge-^68Ga point source, emission scans were performed for 90 min in 3D list-mode with an energy window of 350–750 keV, immediately after the intravenous injection of each radioligand. Mean ± S.D. of the injected radioactivity of [^11C]TASP0410457, [^11C]TASP0434988, and [^11C]TASP0390136 was 119 ± 26 MBq, 132 ± 34 MBq, and 124 ± 17 MBq, respectively (n = 3–5). Mean ± S.D. of the mass doses of [^11C]TASP0410457, [^11C]TASP0434988, and [^11C]TASP0390136 was 2.4 ± 1.2 μg/kg, 1.9 ± 0.4 μg/kg, and 4.2 ± 1.6 μg/kg, respectively (n = 3–5).
To assess the specificity of radioligand binding, thioperamide was injected intravenously at a dose of 10 mg/kg at 30 s before the injection of each radioligand.
All list-mode data were sorted into 3D sinograms, which were then Fourier rebinned into 2D sinograms (frames: 1 min × 4, 2 min × 8 and 5 min × 14). Images were reconstructed using 2D-filtered back-projection with a 0.5-mm Hanning filter.
PET image and magnetic resonance imaging (MRI) template were co-registered using PMOD software (PMOD version 3.206; Zurich, Switzerland) according to the following procedure as in our previous works: Outline of the whole brain and positions of eyes in PET images at an early phase of the scan were initially matched to those in MRI images, and then further translations and rotations of PET images were manually performed for fine alignments. Finally, parameters for the co-registration were applied to the entire dynamic PET data. Regions of interest (ROIs) were placed on the striatum, hippocampus, and cerebellum using PMOD software with reference to the MRI template as described elsewhere. The tissue time-activity curves (TACs) for these ROIs were generated by calculating the SUV for each time frame as follows: SUV=radioactivityBq/g×bodyweightg/injectedradiotracerdoseBq
The binding potentials relative to the non-displaceable uptake (BPND) in the striatum and hippocampus were estimated using the simplified reference tissue model (SRTM) with PMOD software using the cerebellum as a reference region, as the rat cerebellum is devoid of H3R [26].

[3] = target: T2, H3Rs (Macaca mulatta, UniProt Q865E1); test: PET in conscious rhesus monkey; type: in vivo, rhesus monkey (Macaca mulatta)
T2 construct: from tissue; host or cells: brain of living rhesus monkeys
T2 sequence (Q865E1 1-445): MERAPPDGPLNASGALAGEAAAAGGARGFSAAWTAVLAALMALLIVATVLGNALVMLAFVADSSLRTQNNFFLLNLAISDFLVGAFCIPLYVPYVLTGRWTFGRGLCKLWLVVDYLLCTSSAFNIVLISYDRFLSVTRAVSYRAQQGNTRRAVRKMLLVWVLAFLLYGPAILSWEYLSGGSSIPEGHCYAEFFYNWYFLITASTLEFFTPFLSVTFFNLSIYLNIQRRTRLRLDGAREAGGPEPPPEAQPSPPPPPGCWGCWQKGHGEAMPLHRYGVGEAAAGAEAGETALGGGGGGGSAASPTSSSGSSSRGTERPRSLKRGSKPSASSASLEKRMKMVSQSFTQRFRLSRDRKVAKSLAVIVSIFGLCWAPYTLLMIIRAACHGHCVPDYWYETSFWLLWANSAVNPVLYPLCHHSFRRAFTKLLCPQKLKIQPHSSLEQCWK
Method: A male rhesus monkey (Macaca mulatta, weighing 6–7 kg) was used for a comparative PET analysis of [^11C]TASP0410457 and [^11C]TASP0434988. PET scans were performed using a high-resolution SHR-7700 animal PET camera (Hamamatsu Photonics, Hamamatsu, Japan). Following transmission scans for attenuation correction using a ^68Ge-^68Ga point source, emission scans were performed on a conscious monkey as described previously, in 3D acquisition mode (frames: 10 s × 12, 30 s × 6, 1 min × 5, 2 min × 5 and 5 min × 14) for 90 min after the intravenous injection of [^11C]TASP0410457 (169–176 MBq) or [^11C]TASP0434988 (173–188 MBq). Briefly, the monkey was immobilized by joining the acrylic cap on the monkey head with the fixation device during PET scans. To assess a homologous competition for the target binding sites, unlabeled TASP0410457 or TASP0434988 was injected intravenously at a dose of 1 mg/kg at 30 s before injection of the corresponding radioligand.
Emission scan images were reconstructed using a 4.0-mm Colsher filter. ROIs were placed on the anterior cingulate cortex, striatum, thalamus, hippocampus, cerebellum, frontal cortex, temporal cortex, occipital cortex, and pons-medulla using PMOD software, with reference to an MRI template as described previously. Tissue TACs were generated as in the rat PET image analysis.

[4] = design: method as in earlier work; conditions: humans; at 30 min; ref Kimura et al., manuscript submitted to Eur J Nucl Med Mol Imaging; cited from earlier work
[5] = SRTM, cerebellum as reference region

[11CH3]Oc1ccc(N2C(=O)CCc3cc(OC4CCN(C5CCC5)CC4)ccc32)cn1 [[^11C]TASP0410457]
specific radioligand binding as share of the radioactivity in the striatum [1]: more than 80%
Non-displaceable distribution volume ([1]; Lassen's plot): 4.0 mL/cm^3
BPND, Hippocampus [2, 5]: 0.53 ± 0.06
BPND, Striatum [2, 5]: 1.26 ± 0.12
cerebellar SUV at 15 min after radioligand injection ([2]; baseline): 0.64 ± 0.13
peak SUV, cerebellum ([2]; bolus intravenous, baseline): ~1.2
peak SUV, hippocampus ([2]; bolus intravenous, baseline): around 1.5
peak SUV, striatum ([2]; bolus intravenous, baseline): ~2.0
time for specific binding to reach a pseudo-equilibrium state ([2]; target-to-reference ratios, after intravenous injection): ≤ 15 min
cerebellar SUV at 15 min after radioligand injection ([2]; thioperamide predosing 10 mg/kg): 0.47 ± 0.09
peak SUV in the striatum ([3]; another monkey in a conscious condition (additional PET study)): 3.0
time of peak brain uptake after the injection ([3]; conscious monkey PET): ≤ 30 min
peak SUV in the striatum ([3]; first conscious monkey): 3.4
share of total plasma radioactivity arising from the metabolite [4]: 13%
